Experimental data: US11078206B2, “Amino-fluoropiperidine derivatives as kinase inhibitor” (Daewoong Pharmaceutical Co., Ltd., priority 2017, dated 2021)

How the values were obtained:
[1] = tested on: JAK3 kinase (STAT5 phosphorylation induced by IL-2 in HT-2 cells); experiment: JAK3-mediated cell assay (HT-2/IL-2 assay), STAT5 phosphorylation; assay type: cell-based; details: HT2, compound 30 minutes, IL-2 20 ng/ml 10 minutes, HTRF phospho-STAT5 (Tyr694)
Procedure: The inhibitory activities against JAK3 kinase at the cellular level were measured for the compounds prepared in the Examples through in vitro analysis of STAT5 phosphorylation induced by IL-2 stimulation in HT-2 cells. Specifically, STAT5 phosphorylation was analyzed using HTRF®phospho-STAT5 (Tyr694) assay kit (Cisbio, 64AT5PEG), which was purchased from Cisbio. HT-2 cells were cultured for 2 hours in growth factor-free medium. The cultured HT-2 cells were dispensed into 96-well plates by 50 ul so as to be a density of 2.5×10^5 cells/well. The compounds prepared in the previous Examples were prepared so as to be finally a 0.3% DMSO aqueous solution, and HT-2 cells was treated with the compounds for 30 minutes. After the compound treatment, IL-2 was prepared so as to be finally a concentration of 20 ng/ml, and HT-2 cells was treated for 10 minutes. The cells were then disrupted by treating lysis buffers for 30 minutes. The level of STAT5 phosphorylation was measured according to the instructions of HTRF® phospho-STAT5 assay kit, and the inhibitory activity of the compounds according to the invention was calculated. For the analysis of the results of each compound, Microsoft Excel was used, and IC50 values were calculated by SigmaPlot software.

[2] = target: Recombinant purified human BTK (Homo sapiens (Human), UniProt Q06187); experiment: BTK kinase inhibitory activity (ADP Glo assay); details: read-out: BTK IC50, ATP 10 uM, 1 hour 30° C.
[3] = target: Recombinant purified human JAK3 (Homo sapiens (Human), UniProt P52333); experiment: JAK3 kinase inhibitory activity (ADP Glo assay); details: read-out: JAK3 IC50, ATP 5 uM, 1 hour 30° C.
Chain of Recombinant purified human JAK3 (P52333 whole entry): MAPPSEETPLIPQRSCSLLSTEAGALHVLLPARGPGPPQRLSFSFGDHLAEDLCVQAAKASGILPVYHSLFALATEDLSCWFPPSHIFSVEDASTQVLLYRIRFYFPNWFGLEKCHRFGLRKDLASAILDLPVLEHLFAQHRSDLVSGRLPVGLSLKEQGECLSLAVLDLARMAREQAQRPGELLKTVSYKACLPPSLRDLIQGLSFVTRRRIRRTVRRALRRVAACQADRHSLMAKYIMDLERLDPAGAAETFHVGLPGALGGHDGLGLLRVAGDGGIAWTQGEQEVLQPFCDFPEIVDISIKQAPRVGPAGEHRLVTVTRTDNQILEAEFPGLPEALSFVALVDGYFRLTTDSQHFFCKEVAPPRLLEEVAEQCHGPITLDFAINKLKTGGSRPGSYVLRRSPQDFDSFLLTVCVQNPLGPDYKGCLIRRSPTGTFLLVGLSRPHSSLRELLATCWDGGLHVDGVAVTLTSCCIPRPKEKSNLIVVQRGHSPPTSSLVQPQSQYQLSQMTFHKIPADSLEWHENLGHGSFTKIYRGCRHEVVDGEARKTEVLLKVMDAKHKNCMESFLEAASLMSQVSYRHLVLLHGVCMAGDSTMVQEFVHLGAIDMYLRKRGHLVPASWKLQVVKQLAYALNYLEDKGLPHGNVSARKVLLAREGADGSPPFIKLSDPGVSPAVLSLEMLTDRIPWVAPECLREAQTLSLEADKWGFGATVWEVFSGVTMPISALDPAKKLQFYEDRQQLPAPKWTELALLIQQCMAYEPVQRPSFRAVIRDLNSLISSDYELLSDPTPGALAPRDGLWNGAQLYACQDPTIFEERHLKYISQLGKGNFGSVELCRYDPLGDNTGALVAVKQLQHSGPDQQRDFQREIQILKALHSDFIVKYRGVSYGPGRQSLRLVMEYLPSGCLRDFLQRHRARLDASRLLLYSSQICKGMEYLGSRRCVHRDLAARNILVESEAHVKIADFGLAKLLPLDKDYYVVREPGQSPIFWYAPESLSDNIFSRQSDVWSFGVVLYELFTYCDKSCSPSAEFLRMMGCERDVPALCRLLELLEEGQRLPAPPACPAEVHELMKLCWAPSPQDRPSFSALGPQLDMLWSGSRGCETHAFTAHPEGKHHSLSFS

Chain of Recombinant purified human BTK (Q06187 whole entry): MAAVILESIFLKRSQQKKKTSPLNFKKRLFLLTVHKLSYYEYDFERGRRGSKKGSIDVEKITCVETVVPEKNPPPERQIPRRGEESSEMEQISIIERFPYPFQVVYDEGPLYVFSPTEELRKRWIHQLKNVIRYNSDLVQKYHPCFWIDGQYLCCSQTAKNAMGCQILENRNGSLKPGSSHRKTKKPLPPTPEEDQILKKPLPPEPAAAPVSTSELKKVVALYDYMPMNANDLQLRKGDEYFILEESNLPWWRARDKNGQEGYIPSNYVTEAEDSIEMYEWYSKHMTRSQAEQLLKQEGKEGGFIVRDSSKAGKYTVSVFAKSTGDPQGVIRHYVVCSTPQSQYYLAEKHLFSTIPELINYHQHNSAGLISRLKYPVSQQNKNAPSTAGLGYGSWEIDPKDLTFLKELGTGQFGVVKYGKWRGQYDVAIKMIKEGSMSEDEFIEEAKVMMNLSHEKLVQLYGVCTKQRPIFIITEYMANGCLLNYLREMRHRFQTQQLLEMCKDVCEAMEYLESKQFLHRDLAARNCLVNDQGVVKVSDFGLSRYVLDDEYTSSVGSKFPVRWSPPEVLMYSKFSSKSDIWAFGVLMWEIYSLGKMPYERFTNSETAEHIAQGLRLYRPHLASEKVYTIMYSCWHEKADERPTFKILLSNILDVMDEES

IC50 [1] | IC50 [2] | IC50 [3] | Structure (SMILES)
30.9 nM | 0.6 nM | 0.1 nM | C=CC(=O)N1CC[C@@H](F)[C@@H](Nc2nc(Nc3cnn(CC)c3)nc3[nH]cc(Cl)c23)C1 [Example 1, 1-((3S,4R)-3-(5-chloro-2-(1-ethyl-1H-pyrazol-4-ylamino)-7H-pyrrolo[2,3-d]pyrimidin-4-ylamino)-4-fluoropiperidin-1-yl)prop-2-en-1-one]
49 nM | 0.8 nM | 0.1 nM | C=CC(=O)N1CC[C@@H](F)[C@@H](Nc2nc(Nc3cnn(CC(F)F)c3)nc3[nH]cc(Cl)c23)C1 [Example 2, 1-((3S,4R)-3-(5-chloro-2-(1-(2,2-difluoroethyl)-1H-pyrazol-4-ylamino)-7H-pyrrolo[2,3-d]pyrimidin-4-ylamino)-4-fluoropiperidin-1-yl)prop-2-en-1-one]
– | 0.8 nM | 0.1 nM | C=CC(=O)N1CC[C@@H](F)[C@@H](Nc2nc(Nc3cnn(C4CC4)c3)nc3[nH]cc(Cl)c23)C1 [Example 3, 1-((3S,4R)-3-(5-chloro-2-(1-cyclopropyl-1H-pyrazol-4-ylamino)-7H-pyrrolo[2,3-d]pyrimidin-4-ylamino)-4-fluoropiperidin-1-yl)prop-2-en-1-one]
51.8 nM | 3.2 nM | 0.2 nM | C=CC(=O)N1CC[C@@H](F)[C@@H](Nc2nc(Nc3cnoc3)nc3[nH]cc(Cl)c23)C1 [Example 4, 1-((3S,4R)-3-(5-chloro-2-(isoxazol-4-ylamino)-7H-pyrrolo[2,3-d]pyrimidin-4-ylamino)-4-fluoropiperidin-1-yl)prop-2-en-1-one]
288 nM | 3.9 nM | 0.6 nM | C=CC(=O)N1CC[C@@H](F)[C@@H](Nc2nc(Nc3cnsc3)nc3[nH]cc(Cl)c23)C1 [Example 5, 1-((3S,4R)-3-(5-chloro-2-(isothiazol-4-ylamino)-7H-pyrrolo[2,3-d]pyrimidin-4-ylamino)-4-fluoropiperidin-1-yl)prop-2-en-1-one]
– | 0.9 nM | 0.2 nM | C=CC(=O)N1CC[C@@H](F)[C@@H](Nc2nc(Nc3cnn(CC)c3)nc3[nH]cc(C#N)c23)C1 [Example 6, 4-((3S,4R)-1-acryloyl-4-fluoropiperidin-3-ylamino)-2-(1-ethyl-1H-pyrazol-4-ylamino)-7H-pyrrolo[2,3-d]pyrimidine-5-carbonitrile]
– | 0.8 nM | 0.2 nM | C=CC(=O)N1CC[C@@H](F)[C@@H](Nc2nc(Nc3cnn(CC(F)F)c3)nc3[nH]cc(C#N)c23)C1 [Example 7, 4-((3S,4R)-1-acryloyl-4-fluoropiperidin-3-ylamino)-2-(1-(2,2-difluoroethyl)-1H-pyrazol-4-ylamino)-7H-pyrrolo[2,3-d]pyrimidine-5-carbonitrle]
– | 0.9 nM | 0.3 nM | C=CC(=O)N1CC[C@@H](F)[C@@H](Nc2nc(Nc3cnn(C4CC4)c3)nc3[nH]cc(C#N)c23)C1 [Example 8, 4-((3S,4R)-1-acryloyl-4-fluoropiperidin-3-ylamino)-2-(1-cyclopropyl-1H-pyrazol-4-ylamino)-7H-pyrrolo[2,3-d]pyrimidine-5-carbonitrle]
282 nM | 2.2 nM | 0.3 nM | C=CC(=O)N1CC[C@@H](F)[C@@H](Nc2nc(Nc3cnoc3)nc3[nH]cc(C#N)c23)C1 [Example 9, 4-((3S,4R)-1-acryloyl-4-fluoropiperidin-3-ylamino)-2-(isoxazol-4-ylamino)-7H-pyrrolo[2,3-d]pyrimidine-5-carbonitrle]
242 nM | 3.3 nM | 0.5 nM | C=CC(=O)N1CC[C@@H](F)[C@@H](Nc2nc(Nc3cnn(CC)c3)nc3[nH]cc(C)c23)C1 [Example 10, 1-((3S,4R)-3-(2-(1-ethyl-1H-pyrazol-4-ylamino)-5-methyl-7H-pyrrolo[2,3-d]pyrimidin-4-ylamino)-4-fluoropiperidin-1-yl)prop-2-en-1-one]
248 nM | 9.1 nM | 0.7 nM | C=CC(=O)N1CC[C@@H](F)[C@@H](Nc2nc(Nc3cnoc3)nc3[nH]cc(C)c23)C1 [Example 11, 1-((3S,4R)-4-fluoro-3-(2-(isoxazol-4-ylamino)-5-methyl-7H-pyrrolo[2,3-d]pyrimidin-4-ylamino)piperidin-1-yl)prop-2-en-1-one]
25.4 nM | 1 nM | 0.2 nM | C=CC(=O)N1CC[C@H](F)[C@@H](Nc2nc(Nc3cnn(CC)c3)nc3[nH]cc(Cl)c23)C1 [Example 12, 1-((3S,4S)-3-(5-chloro-2-(1-ethyl-1H-pyrazol-4-ylamino)-7H-pyrrolo[2,3-d]pyrimidin-4-ylamino)-4-fluoropiperidin-1-yl)prop-2-en-1-one]
